The source of these data is US11806344B2, “Pharmaceutical composition comprising mineralocorticoid receptor antagonist and use thereof” (priority 2016, dated 2023).

Data set [1] is described as follows: Absorption of Compound I D90 5 μm suspension in Beagle dogs (Example 3-2). It counts as in vivo. To be noted: intragastric single dose 0.5 mg/kg, suspension in 0.5% MC. As for the experimental part:
Sample to test: Compound I having D90 of 5 μm was suspended in 0.5% MC immediately before tests, to prepare 0.25 mg/mL suspension.
Animals: Three Beagle Dogs.
(1) All animals fasted for 12 h or longer before drug administration, and food was supplied 4 h after drug administration, with ad libitum access to water all the time. […] The collected blood was stored in a dry tube with heparin (normal saline containing 0.1% heparin sodium). (2) Plasma preparation: The whole blood samples collected in step (1) were subject to centrifugation at a low speed (8000 r/min, 6 min, 4° C.) to separate the plasma (the whole blood was stored in a mobile freezer at about 0 to 4° C., and plasma had to be separated within 30 minutes after the blood collection), and the plasma was kept in dark in a freezer at −70° C. (or lower) for future analysis.

Data set [2] in a line: Absorption of Compound I of different particle sizes/formulations in male SD rats (Example 3-1). The class given is in vivo. To be noted: intragastric single dose 1.0 mg/kg; for AUCINF: 1 mg/kg; for BA %: absolute bioavailability vs IV 2.0 mg/kg. Here is the method:
Compound I with different formulations and/or different D90 values was compared for absorptions in male SD rats.
Samples to test: Compound I was prepared by the method as described in Example 1 of WO2014094664A1, and then pulverized to provide Compound I samples having D90 of 538 nm, 3.8 μm, 21.7 μm, 41.5 μm and 71.6 μm, respectively; immediately before the tests, these samples were suspended in 0.5% MC to obtain 1 mg/mL suspensions.
Solutions: 5% DMSO+95% (solution containing 6% HP-β-CD)
Solid dispersions: Compound I: Polyvinylpyrrolidone K30=1:8 (w/w)
The formulation for intravenous injection was a solution where Compound I was dissolved in 5% DMSO+95% (6% HP-β-CD solution), and SD rats were administered at a dose of 2 mg/kg.

Data set [3] deals with patients with diabetic nephrophthy. To be noted: cited from earlier work.
The conditions of data set [4]: rat, in vivo, po, 1 mg/kg.
Method: Blood collection: The animals were fixed and had their tails warmed in a water bath 10 min prior to blood collection; about 100 μL of blood was collected through the tail vein for each animal and put into an anticoagulation tube containing hepatin; the blood samples were subject to centrifugation at 8000 rpm for 6 min at 4° C. to obtain plasma samples, which had to be obtained within 30 minutes after blood was collected; the plasma samples were stored in a freezer at −80° C. for future tests.
Sample analysis: 50 μL of each plasma sample from the freezer was transferred to a centrifugal tube; 100 μL of water and 400 μL of MTBE standard solution (50 ng/mL) were added into the tube and well mixed with the plasma; the obtained mixture was mixed for 10 minutes using a vortex mixer and then subject to centrifugation for 5 minutes (12000 r/min); 300 μL of the supernatant was transferred to another centrifugal tube and blown dry with nitrogen gas; the resultant substance was dissolved in 200 μL of a solution consisting of methanol and water at a ratio of 1:1, of which 20 μL was used for the LC-MS/MS measurement.
Data processing: the compound concentration was output by Analyst 1.6.1 (AB Sciex); the means, standard deviations, and variation coefficients were calculated using Microsoft Excel (no calculation needed if these parameters were directed output by Analyst 1.6.1), and pharmacokinetic parameters were determined using the NCA analysis object in Pharsight Phoenix 6.3.

Read-outs that look alike come from different tables or passages of the source.

For `N#Cc1ccc(N2N=C3c4ccc(C(=O)N5CCC(O)CC5)nc4CC[C@@H]3[C@@H]2C2CCCC2)cc1Cl` [Compound I having D90 of 5 μm], the AUC(0-inf) in data set [1] (dog, plasma, po) was 506 ng·h/mL. The same compound yielded a BA % in data set [1] of 57.4%. `N#Cc1ccc(N2N=C3c4ccc(C(=O)N5CCC(O)CC5)nc4CC[C@@H]3[C@@H]2C2CCCC2)cc1Cl` [Compound I with D90 of 3.8 μm]: in data set [2], the AUCINF was 1045 ng·h/mL and the BA % is recorded as 66.9%. For `N#Cc1ccc(N2N=C3c4ccc(C(=O)N5CCC(O)CC5)nc4CC[C@@H]3[C@@H]2C2CCCC2)cc1Cl` [Compound I with D90 of 21.7 μm] the same measures were 854 ng·h/mL and 54.6%.

With `N#Cc1ccc(N2N=C3c4ccc(C(=O)N5CCC(O)CC5)nc4CC[C@@H]3[C@@H]2C2CCCC2)cc1Cl` [Compound I with D90 of 41.5 μm], in data set [2], the AUCINF came to 545 ng·h/mL and the BA % is on record as 34.8%.

With `N#Cc1ccc(N2N=C3c4ccc(C(=O)N5CCC(O)CC5)nc4CC[C@@H]3[C@@H]2C2CCCC2)cc1Cl` [Compound I with D90 of 72.0 μm], the AUCINF in data set [2] was found to be 207 ng·h/mL. In addition, the BA % in data set [2] and in data set [2] (listed as Compound I with D90 of 72.2 μm) was 13.2% in each case. In data set [2], `N#Cc1ccc(N2N=C3c4ccc(C(=O)N5CCC(O)CC5)nc4CC[C@@H]3[C@@H]2C2CCCC2)cc1Cl` [Compound I with D90 of 538 nm] yielded an AUCINF of 1287 ng·h/mL and a BA % of 82.3%. Consider `CCOc1ncc(C)c2c1[C@H](c1ccc(C#N)cc1OC)C(C(N)=O)=C(C)N2` [Finerenone], for which the UACR reduced in data set [3] (Finerenone 7.5 mg/day) is on record as 21%; in data set [3] (Finerenone 10 mg/day), 24%; in data set [3] (Finerenone 15 mg/day) it was 33%; in data set [3] (Finerenone 20 mg/day), 38%. For the same compound, the “incidence of discontinuation due to onset of hyperkalemia” value was 2.1% in data set [3] (Finerenone 7.5 mg/day), 0% in data set [3] (Finerenone 10 mg/day), 3.2% in data set [3] (Finerenone 15 mg/day) and 1.7% in data set [3] (Finerenone 20 mg/day). Carbomer had an AUCINF in data set [4] of 289 ng·h/mL. In data set [4], Hydroxypropyl cellulose registered an AUCINF of 535 ng·h/mL. The same measure, in the same setting: the same measure for Hydroxypropyl methyl cellulose: 483 ng·h/mL; for Poloxamer 188: 712 ng·h/mL; for Polyethylene glycol 400: 613 ng·h/mL. The compound Polyoxyl(40) stearate yielded an AUCINF in data set [4] of 427 ng·h/mL.

For the compound Polysorbate 80, the AUCINF in data set [4] stood at 654 ng·h/mL. Same read-out and setting: then Polyvinyl alcohol, with 603 ng·h/mL; and hydroxypropyl-β-cyclodextrin, with 350 ng·h/mL.

The term AUC(0-inf) denotes total exposure, with the tail of the curve extrapolated. A lower AUC(0-inf) goes with less exposure.
